From the supplement of paper PMC11061612

Experiments:
[1] = system: HCC-44 (Lung Adenocarcinoma); test: Bliss excess, mean over the matrix (fraction); higher = more synergy
Method in brief: (§1)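 Bliss excess equals the observed combination effect minus the expected value EA + EB − EA·EB, where EA and EB are the effects of each agent alone. Combination Emax is the second-highest inhibition within the matrix. Inhibition was scaled from CellTiter-Glo 2.0 luminescence, with 0 set by vehicle wells and 1 by blank wells, after 72 hours of two-drug dosing of cells plated in 1536-well plates.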

[2] = system: SK-MM-2 (Plasma Cell Myeloma); test: combination Emax (second highest fraction inhibited in the dose matrix, 72 h); higher = more inhibition; extreme values may be limits of the assay
Method in brief: as §1

[3] = system: NCI-H810 (Non-Small Cell Lung Carcinoma); test: as above
Method in brief: as §1

[4] = system: SNU-175 (Colorectal Carcinoma); test: as above
Method in brief: as §1

[5] = system: OVTOKO (Ovarian Carcinoma); test: as above
Method in brief: as §1

[6] = system: HCC-44 (Lung Adenocarcinoma); test: as above
Method in brief: as §1

SMILES	Bliss excess [1]	combination Emax [2]	combination Emax [3]	combination Emax [4]	combination Emax [5]	combination Emax [6]
CS(=O)(=O)CCNCc1ccc(-c2ccc3ncnc(Nc4ccc(OCc5cccc(F)c5)c(Cl)c4)c3c2)o1 [Lapatinib] + C[C@@H](Oc1cc(-c2cnn(C3CCNCC3)c2)cnc1N)c1c(Cl)ccc(F)c1Cl [Crizotinib] (first compound max 10 µM, 7x7, partner max 10 µM)	-0.0384	0.43	0.412	0.917	0.902	0.939
CC(=O)c1c(C)c2cnc(Nc3ccc(N4CCNCC4)cn3)nc2n(C2CCCC2)c1=O [Palbociclib] + CC1(C)CCC(CN2CCN(c3ccc(C(=O)NS(=O)(=O)c4ccc(NCC5CCOCC5)c([N+](=O)[O-])c4)c(Oc4cnc5[nH]ccc5c4)c3)CC2)=C(c2ccc(Cl)cc2)C1 [Venetoclax] (first compound max 10 µM, 7x7, partner max 1 µM)	-0.0374	1	0.0599	0.562	0.336	0.0628
CC(=O)c1c(C)c2cnc(Nc3ccc(N4CCNCC4)cn3)nc2n(C2CCCC2)c1=O [Palbociclib] + Cc1c2c(nn1C)CSCc1cc(n(C)n1)CSc1cc(c3ccccc3c1)OCCCc1c(C(=O)O)n(C)c3c-2c(Cl)ccc13 [AZD5991] (first compound max 10 µM, 7x7, partner max 1 µM)	-0.0224	0.259	0.224	0.652	0.48	0.169
CC(=O)c1c(C)c2cnc(Nc3ccc(N4CCNCC4)cn3)nc2n(C2CCCC2)c1=O [Palbociclib] + Cn1cnc2c(F)c(Nc3ccc(Br)cc3Cl)c(C(=O)NOCCO)cc21 [Selumetinib] (first compound max 10 µM, 7x7, partner max 10 µM)	0.0332	0.138	0.0848	0.549	0.259	0.426
C[C@@H](c1ccc2nccn2c1)n1nnc2ncc(-c3cnn(C)c3)nc21 [Savolitinib] + CC1(C)CCC(CN2CCN(c3ccc(C(=O)NS(=O)(=O)c4ccc(NCC5CCOCC5)c([N+](=O)[O-])c4)c(Oc4cnc5[nH]ccc5c4)c3)CC2)=C(c2ccc(Cl)cc2)C1 [Venetoclax] (first compound max 1 µM, 7x7, partner max 1 µM)	-0.02	1	0.194	0.119	0.199	0.148
C[C@@H](c1ccc2nccn2c1)n1nnc2ncc(-c3cnn(C)c3)nc21 [Savolitinib] + Cc1c2c(nn1C)CSCc1cc(n(C)n1)CSc1cc(c3ccccc3c1)OCCCc1c(C(=O)O)n(C)c3c-2c(Cl)ccc13 [AZD5991] (first compound max 1 µM, 7x7, partner max 1 µM)	-0.0335	0.131	0.255	0.426	0.199	0.0929
Cn1cnc2c(F)c(Nc3ccc(Br)cc3Cl)c(C(=O)NOCCO)cc21 [Selumetinib] + C=CCn1c(=O)c2cnc(Nc3ccc(N4CCN(C)CC4)cc3)nc2n1-c1cccc(C(C)(C)O)n1 [AZD1775] (first compound max 10 µM, partner max 1 µM)	-0.0088	0.236	0.542	0.718	0.452	0.64
Cn1cnc2c(F)c(Nc3ccc(Br)cc3Cl)c(C(=O)NOCCO)cc21 [Selumetinib] + CC(C)n1c(=O)n(C)c2cnc3cc(F)c(-c4ccc(OCCCN5CCCCC5)nc4)cc3c21 [AZD1390] (first compound max 10 µM, 7x7, partner max 0.3 µM)	-0.0225	0.174	0.304	0.27	0.185	0.396
Cn1cnc2c(F)c(Nc3ccc(Br)cc3Cl)c(C(=O)NOCCO)cc21 [Selumetinib] + CCN(CCO)CCCOc1ccc2c(Nc3cc(CC(=O)Nc4cccc(F)c4)[nH]n3)ncnc2c1 [AZD2811] (first compound max 10 µM, 7x7, partner max 1 µM)	0.0067	0.161	0.444	0.956	0.227	0.528
Cn1cnc2c(F)c(Nc3ccc(Br)cc3Cl)c(C(=O)NOCCO)cc21 [Selumetinib] + C[C@@H]1COCCN1C2=NC(=NC(=C2)C3(CC3)[S@](=N)(=O)C)C4=C5C=CNC5=NC=C4 [AZD6738] (first compound max 10 µM, 7x7, partner max 10 µM)	-0.034	0.23	0.414	0.718	0.404	0.503
